“And” between values parts separate entries of the source, which are not always exact repeats. Equal values may be shown once.
Assays:
[1] = biological target: DNA-3-methyladenine glycosylase (Homo sapiens) (UniProt P29372); conditions: Compound Concentration 10.0 uM, Hit No;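 also: enzyme assay where MPG cuts a quenched duplex DNA oligonucleotide probe, paired with APE1 for strand incision and turnover, read as fluorescence at 594 nm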
Description: Inhibition of MPG by quantifying inhibition of MPG-mediated cleavage and dissociation of quenched duplex DNA oligonucleotides, measured as fluorescence at 594 nm. To generate a functional strand incision and increase turn-over this assay is coupled to APE1.

[2] = biological target: N-glycosylase/DNA lyase (Homo sapiens) (UniProt O15527); conditions: Compound Concentration 10.0 uM;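 also: OGG1 cleavage of a quenched duplex DNA oligonucleotide, coupled to APE1 for strand incision, read as fluorescence at 594 nm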
Description: Inhibition of OGG1 by quantifying inhibition of OGG1-mediated cleavage and dissociation of quenched duplex DNA oligonucleotides, measured as fluorescence at 594 nm. To generate a functional strand incision and increase turn-over this assay is coupled to APE1.

[3] = biological target: Uracil-DNA glycosylase (Homo sapiens) (UniProt P13051); conditions: Compound Concentration 10.0 uM, Hit No;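 also: UNG excision on a quenched double-stranded DNA oligo probe, with APE1 added for strand incision and turnover, read as fluorescence at 594 nm as strands separate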
Description: Inhibition of UNG by quantifying inhibition of UNG-mediated cleavage and dissociation of quenched duplex DNA oligonucleotides, measured as fluorescence at 594 nm. To generate a functional strand incision and increase turn-over this assay is coupled to APE1.

[4] = biological target: T1, Single-strand selective monofunctional uracil DNA glycosylase (Homo sapiens) (UniProt Q53HV7); conditions: Compound Concentration 10.0 uM;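 also: enzymatic SMUG1 assay coupled with APE1, reading fluorescence at 594 nm released when a quenched double-stranded DNA oligonucleotide substrate is cleaved and separated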
T1 sequence (whole entry): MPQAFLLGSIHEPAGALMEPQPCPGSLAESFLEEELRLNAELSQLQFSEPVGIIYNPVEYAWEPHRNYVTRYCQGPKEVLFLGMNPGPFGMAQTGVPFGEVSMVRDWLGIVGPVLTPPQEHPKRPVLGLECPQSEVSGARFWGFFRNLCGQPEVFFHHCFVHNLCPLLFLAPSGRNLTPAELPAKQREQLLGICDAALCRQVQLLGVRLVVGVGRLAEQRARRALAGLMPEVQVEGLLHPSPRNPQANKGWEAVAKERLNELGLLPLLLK
Description: Inhibition of SMUG1 by quantifying inhibition of SMUG1-mediated cleavage and dissociation of quenched duplex DNA oligonucleotides, measured as fluorescence at 594 nm. To generate a functional strand incision and increase turn-over this assay is coupled to APE1.

[5] = biological target: T2, Endonuclease 8-like 2 (Homo sapiens) (UniProt Q969S2); conditions: Compound Concentration 10.0 uM, Hit No;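 also: fluorescence at 594 nm reports NEIL2 cutting and release of a quenched double-stranded DNA oligo substrate, reduced signal read as inhibition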
T2 sequence (whole entry): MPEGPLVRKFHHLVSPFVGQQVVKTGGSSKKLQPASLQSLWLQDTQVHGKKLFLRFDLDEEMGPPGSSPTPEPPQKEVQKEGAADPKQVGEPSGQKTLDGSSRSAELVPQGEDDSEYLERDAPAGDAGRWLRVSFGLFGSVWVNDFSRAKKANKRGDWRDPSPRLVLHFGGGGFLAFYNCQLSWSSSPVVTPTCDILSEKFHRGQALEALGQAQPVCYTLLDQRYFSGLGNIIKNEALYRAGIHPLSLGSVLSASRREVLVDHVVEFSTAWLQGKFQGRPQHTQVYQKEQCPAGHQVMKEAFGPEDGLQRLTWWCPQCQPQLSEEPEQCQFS
Description: Inhibition of NEIL2 by quantifying inhibition of NEIL2-mediated cleavage and dissociation of quenched duplex DNA oligonucleotides, measured as fluorescence at 594 nm.

[6] = biological target: Endonuclease 8-like 1 (Homo sapiens) (UniProt Q96FI4); conditions: Compound Concentration 10.0 uM, Hit No;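 also: fluorescence at 594 nm from quenched duplex DNA oligonucleotides released by NEIL1 cleavage and strand separation, reported as reduction of this enzyme activity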
Description: Inhibition of NEIL1 by quantifying inhibition of NEIL1-mediated cleavage and dissociation of quenched duplex DNA oligonucleotides, measured as fluorescence at 594 nm.

[7] = biological target: T3, Adenine DNA glycosylase (Homo sapiens) (UniProt Q9UIF7); conditions: Compound Concentration 10.0 uM, Hit No;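 also: human MUTYH activity read as 594 nm fluorescence from cleavage and release of a quenched DNA duplex, coupled with APE1 for strand incision, lower signal meaning inhibition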
T3 sequence (whole entry): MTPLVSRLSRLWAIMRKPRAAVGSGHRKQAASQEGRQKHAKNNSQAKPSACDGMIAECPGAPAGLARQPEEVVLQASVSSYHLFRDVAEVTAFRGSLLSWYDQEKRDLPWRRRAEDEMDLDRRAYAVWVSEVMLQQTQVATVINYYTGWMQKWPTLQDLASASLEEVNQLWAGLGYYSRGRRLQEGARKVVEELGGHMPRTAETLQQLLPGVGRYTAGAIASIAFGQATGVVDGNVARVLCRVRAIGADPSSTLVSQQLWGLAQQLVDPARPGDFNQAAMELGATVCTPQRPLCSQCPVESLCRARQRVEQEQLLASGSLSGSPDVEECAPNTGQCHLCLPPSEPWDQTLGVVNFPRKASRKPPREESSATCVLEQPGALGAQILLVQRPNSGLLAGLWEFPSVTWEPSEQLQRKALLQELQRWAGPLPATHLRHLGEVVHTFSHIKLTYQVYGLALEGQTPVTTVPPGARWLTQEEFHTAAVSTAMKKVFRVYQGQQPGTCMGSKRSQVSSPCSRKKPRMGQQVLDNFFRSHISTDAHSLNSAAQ
Description: Inhibition of MUTYH by quantifying inhibition of MUTYH-mediated cleavage and dissociation of quenched duplex DNA oligonucleotides, measured as fluorescence at 594 nm. To generate a functional strand incision and increase turn-over this assay is coupled to APE1.

[8] = biological target: Methyl-CpG-binding domain protein 4 (Homo sapiens) (UniProt O95243); conditions: Compound Concentration 10.0 uM;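 also: MBD4 activity read as fluorescence at 594 nm from cleavage and release of a quenched duplex DNA oligonucleotide, with APE1 coupled to incise the strand and raise turnover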
Description: Inhibition of MBD4 by quantifying inhibition of MBD4-mediated cleavage and dissociation of quenched duplex DNA oligonucleotides, measured as fluorescence at 594 nm. To generate a functional strand incision and increase turn-over this assay is coupled to APE1.

[9] = biological target: T4, Endonuclease III-like protein 1 (Homo sapiens) (UniProt P78549); conditions: Compound Concentration 10.0 uM;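 also: enzyme assay tracking NTHL1 cutting and release of a quenched double-stranded DNA oligo substrate, read as fluorescence at 594 nm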
T4 sequence (whole entry): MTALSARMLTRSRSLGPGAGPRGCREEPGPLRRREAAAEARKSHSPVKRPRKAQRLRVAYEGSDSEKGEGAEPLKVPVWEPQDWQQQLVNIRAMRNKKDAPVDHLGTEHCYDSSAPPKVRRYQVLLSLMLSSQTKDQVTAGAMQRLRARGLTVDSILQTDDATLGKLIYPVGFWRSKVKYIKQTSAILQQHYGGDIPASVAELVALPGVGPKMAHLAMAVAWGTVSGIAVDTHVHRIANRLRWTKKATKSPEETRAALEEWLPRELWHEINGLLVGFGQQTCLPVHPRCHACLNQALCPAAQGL
Description: Inhibition of NTHL1 by quantifying inhibition of NTHL1-mediated cleavage and dissociation of quenched duplex DNA oligonucleotides, measured as fluorescence at 594 nm.

[10] = biological target: G/T mismatch-specific thymine DNA glycosylase (Homo sapiens) (UniProt Q13569); conditions: Compound Concentration 10.0 uM;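 also: human TDG cleavage of quenched duplex DNA oligonucleotides coupled to APE1, strand release read as fluorescence at 594 nm, inhibition of TDG activity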
Chain of G/T mismatch-specific thymine DNA glycosylase (Homo sapiens) (Q13569 whole entry): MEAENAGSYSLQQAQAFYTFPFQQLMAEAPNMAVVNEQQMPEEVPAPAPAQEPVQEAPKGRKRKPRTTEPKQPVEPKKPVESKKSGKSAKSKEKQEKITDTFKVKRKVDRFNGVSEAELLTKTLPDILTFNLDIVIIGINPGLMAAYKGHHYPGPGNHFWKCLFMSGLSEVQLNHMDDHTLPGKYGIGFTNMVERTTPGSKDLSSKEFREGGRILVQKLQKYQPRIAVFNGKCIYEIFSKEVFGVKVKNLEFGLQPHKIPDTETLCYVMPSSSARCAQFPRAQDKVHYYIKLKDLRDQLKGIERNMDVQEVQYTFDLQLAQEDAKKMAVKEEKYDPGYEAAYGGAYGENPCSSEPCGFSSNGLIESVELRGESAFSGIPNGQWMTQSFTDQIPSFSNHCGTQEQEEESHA
Description: Inhibition of TDG by quantifying inhibition of TDG-mediated cleavage and dissociation of quenched duplex DNA oligonucleotides, measured as fluorescence at 594 nm. To generate a functional strand incision and increase turn-over this assay is coupled to APE1.

Chain of N-glycosylase/DNA lyase (Homo sapiens) (O15527 whole entry): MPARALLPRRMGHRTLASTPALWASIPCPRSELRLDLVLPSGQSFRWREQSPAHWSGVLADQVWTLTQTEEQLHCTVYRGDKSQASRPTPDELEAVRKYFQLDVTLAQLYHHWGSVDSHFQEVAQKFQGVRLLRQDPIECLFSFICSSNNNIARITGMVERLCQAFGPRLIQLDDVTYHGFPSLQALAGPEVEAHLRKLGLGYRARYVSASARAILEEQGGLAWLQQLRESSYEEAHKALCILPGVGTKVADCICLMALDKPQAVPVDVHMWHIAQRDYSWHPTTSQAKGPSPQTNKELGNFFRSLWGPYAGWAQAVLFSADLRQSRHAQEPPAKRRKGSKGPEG
Chain of Uracil-DNA glycosylase (Homo sapiens) (P13051 whole entry): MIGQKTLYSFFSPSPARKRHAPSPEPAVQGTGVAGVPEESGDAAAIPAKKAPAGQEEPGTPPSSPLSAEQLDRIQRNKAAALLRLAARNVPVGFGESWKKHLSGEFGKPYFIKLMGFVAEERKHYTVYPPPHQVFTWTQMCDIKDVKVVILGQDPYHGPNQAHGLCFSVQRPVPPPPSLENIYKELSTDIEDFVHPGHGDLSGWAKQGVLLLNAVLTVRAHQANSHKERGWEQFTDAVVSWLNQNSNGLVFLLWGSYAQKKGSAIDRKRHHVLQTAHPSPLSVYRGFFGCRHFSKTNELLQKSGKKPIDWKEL
Chain of DNA-3-methyladenine glycosylase (Homo sapiens) (P29372 whole entry): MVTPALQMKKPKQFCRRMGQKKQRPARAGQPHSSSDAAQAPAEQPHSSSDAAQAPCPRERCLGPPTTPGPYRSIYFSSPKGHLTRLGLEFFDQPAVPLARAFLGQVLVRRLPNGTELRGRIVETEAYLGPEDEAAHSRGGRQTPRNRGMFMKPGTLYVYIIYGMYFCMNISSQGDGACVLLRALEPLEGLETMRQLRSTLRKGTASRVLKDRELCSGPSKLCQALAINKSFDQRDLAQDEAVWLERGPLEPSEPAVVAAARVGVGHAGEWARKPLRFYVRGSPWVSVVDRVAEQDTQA
Chain of Methyl-CpG-binding domain protein 4 (Homo sapiens) (O95243 whole entry, the tested form may be a part): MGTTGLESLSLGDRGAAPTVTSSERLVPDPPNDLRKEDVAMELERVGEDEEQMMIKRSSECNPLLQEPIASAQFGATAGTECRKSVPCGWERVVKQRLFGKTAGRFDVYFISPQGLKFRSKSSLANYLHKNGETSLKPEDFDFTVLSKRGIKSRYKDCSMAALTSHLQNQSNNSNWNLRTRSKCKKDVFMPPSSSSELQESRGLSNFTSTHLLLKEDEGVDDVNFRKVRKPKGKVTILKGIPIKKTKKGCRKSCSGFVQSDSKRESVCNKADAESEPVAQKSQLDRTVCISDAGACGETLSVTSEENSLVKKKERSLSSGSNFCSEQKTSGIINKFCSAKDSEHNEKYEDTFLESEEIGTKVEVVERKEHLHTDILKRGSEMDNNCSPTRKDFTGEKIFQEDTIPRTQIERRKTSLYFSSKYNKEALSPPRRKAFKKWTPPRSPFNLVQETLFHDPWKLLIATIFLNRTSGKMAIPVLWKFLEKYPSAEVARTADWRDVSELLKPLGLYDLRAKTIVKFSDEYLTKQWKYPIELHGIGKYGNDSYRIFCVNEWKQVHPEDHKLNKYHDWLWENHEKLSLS
Chain of Endonuclease 8-like 1 (Homo sapiens) (Q96FI4 whole entry): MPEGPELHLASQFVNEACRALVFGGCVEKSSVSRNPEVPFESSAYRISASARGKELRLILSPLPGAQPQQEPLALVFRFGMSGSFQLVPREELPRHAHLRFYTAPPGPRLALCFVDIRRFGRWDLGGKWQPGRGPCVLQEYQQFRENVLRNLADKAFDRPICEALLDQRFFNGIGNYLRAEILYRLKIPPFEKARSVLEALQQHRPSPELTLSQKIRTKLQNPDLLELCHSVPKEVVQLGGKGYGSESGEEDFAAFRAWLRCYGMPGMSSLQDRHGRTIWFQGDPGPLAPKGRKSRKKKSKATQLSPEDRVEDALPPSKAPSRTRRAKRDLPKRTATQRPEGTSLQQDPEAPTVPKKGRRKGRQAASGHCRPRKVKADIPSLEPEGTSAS

SMILES	inhibition [1]	inhibition ([2]; Hit No)	inhibition [3]	inhibition ([4]; Hit No) [%]	inhibition [5]	inhibition [6]	inhibition [7]	inhibition ([8]; Hit No)	inhibition ([9]; Hit No) [%]	inhibition ([10]; Hit No) [%]	inhibition ([10]; Hit Yes)	inhibition ([2]; Hit Yes) [%]	inhibition ([4]; Hit Yes) [%]	inhibition ([8]; Hit Yes) [%]	inhibition ([9]; Hit Yes) [%]
COc1ccccc1N1CCN(C[C@@H](C(=O)NC(C)(C)C)c2ccccc2)CC1	15.3%	-6.28%	-2.81%	7.78	-2.13%	15.4%	-2.23%	17.7%	17.1	24.3	–	–	–	–	–
C[C@H](N)COC(=O)[C@@H](CCCCN)NC(=O)Cc1c(-c2ccc3ccccc3c2)[nH]c2c1ccc1ccccc12	58.5% and 61.8%	-2.94% and 9.96%	4.7% and 1.53%	4.71	14.7% and 12.7%	2.76% and 13.3%	122% and 125%	95.3% and 102%	5.59	–	88.5% and 91%	–	–	–	–
NCCc1c[nH]c2ccc(O)cc12	21.8%	-2.75%	-8.18%	-6.38	9.75%	5.88%	2.2%	-6.88%	1.92	20.7	–	–	–	–	–
O=C(NS(=O)(=O)N1CCC1)c1cc(C2CC2)c(OCC23CC4CC(CC(C4)C2)C3)cc1F	60.8%	–	7.9%	–	17.5%	7.57%	93%	–	–	–	79.6%	93.6	98.5	87.3	56.7
COC[C@H](O)Cn1c(=O)cnn(-c2ccc(Cl)c(C(=O)NCC3(O)CCCCCC3)c2)c1=O	19.8%	-7.67%	-3.13%	-5.5	-2.64%	1.64%	7.26%	2.28%	-8.51	9.08	–	–	–	–	–
CCCCC[C@H](O)/C=C/[C@H]1CCC(=O)[C@@H]1CCCCCCC(=O)O	6.97%	3.78%	-4.12%	-3.08	4.01%	1.28%	15.9%	17.3%	1.19	11.4	–	–	–	–	–
Cc1ccc2c(c1CCC(=O)O)CC[C@@H](NS(=O)(=O)c1ccc(Cl)cc1)C2	11.8%	10%	-7.64%	4.86	1.01%	5.13%	33.4%	16.2%	15.1	18	–	–	–	–	–
NCCc1c[nH]c2ccc(C(N)=O)cc12	-1.86%	-3.21%	-6.78%	0.209	-5.97%	7.95%	4.88%	-4.67%	-7.6	8.45	–	–	–	–	–
Cc1ccnc(Nc2nc(-c3ccccn3)cs2)c1	16%	-1.19%	-7.33%	5.18	9.84%	-0.88%	13.9%	9.11%	17.1	17.8	–	–	–	–	–
CCc1nnc(NS(=O)(=O)c2ccc(NC(=S)NC(=O)/C=C/c3ccc(F)cc3)cc2)s1	31.8%	12.1%	3.3%	24.8	9.5%	-4.5%	54.8%	48%	23.2	49.8	–	–	–	–	–
O=C(Nc1ccccc1Br)N[C@@H]1CCN(c2ccc(C(F)(F)F)cn2)C1	35.3%	3.57%	2.31%	15	2.71%	-1.77%	26.9%	41.6%	6.35	27.5	–	–	–	–	–
CC(C)(C)C1CCc2c(sc(NC(=O)c3ccco3)c2C(=O)O)C1 (stereo not given)	-0.565%	36.3%	-0.0242%	-0.636	17.7%	4.9%	30.5%	32.2%	33.6	25.9	–	–	–	–	–
COc1cc(OC)cc(C(=O)NNC(=O)Nc2cccc3ccccc23)c1	3.65%	3.09%	-7.99%	3.6	5.26%	-1.69%	2.2%	-8.62%	2.66	11.6	–	–	–	–	–
COc1ccc(-c2csc(NC(=O)[C@H]3CCCCN3S(=O)(=O)c3ccc(C)cc3)n2)cc1	12%	-5.94%	-6.47%	12.1	3.47%	4.6%	11.1%	10.3%	22	5.87	–	–	–	–	–
Cc1cc(OCCCS(C)(=O)=O)cc(C)c1-c1cccc(COc2ccc3c(c2)OC[C@H]3CC(=O)O)c1	12.1%	18.3%	-3.46%	12.3	8.25%	-4.36%	49.2%	46.9%	10.7	44.4	–	–	–	–	–
O=C(O)C[C@H]1CCc2c1[nH]c1ccc(OCc3ccc(C4CCCC4)c(C(F)(F)F)c3)cc21	18.9%	34.1%	-6.26%	-8.03	0.515%	-9.84%	9.75%	47.5%	36.4	45	–	–	–	–	–
CC(C)c1cc(Br)c(NC(=O)Nc2cccnc2)c(Br)c1	14.7%	-2.73%	-2.82%	-3.86	7.55%	3.27%	0.0238%	12.5%	-2.73	19.7	–	–	–	–	–
COc1cc(NC(=O)c2ccc(-c3ccc(Cl)cc3)o2)cc(OC)c1	18%	3.08%	3.14%	15.3	-9.78%	6.97%	-0.703%	21.1%	8.82	9.84	–	–	–	–	–
O=C1C[C@@H]2OCC=C3CN4CC[C@]56c7ccccc7N1[C@H]5[C@H]2[C@H]3C[C@H]46	-1.64%	-7.16%	-3.11%	-0.692	-1.88%	0.602%	38.1%	11.5%	10.5	11.6	–	–	–	–	–
Cn1ncnc1COc1nn2c(-c3cc(F)ccc3F)nnc2cc1C(C)(C)C	-8.96%	-6.92%	-5.8%	-5.72	-8.5%	1.64%	-2.13%	6.48%	-7.69	6.81	–	–	–	–	–
COc1ccc(CCCN2CCC(COC(c3ccccc3)c3ccccc3)CC2)cc1	47.2%	-0.567%	-1.12%	9.31	8.06%	4.75%	35%	49.2%	13.8	47.6	–	–	–	–	–
